# Results as given in PubChem BioAssay (NCI).
#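 Exposure lasted 48 hours, with cells grown in 96-well plates and compounds tested at five concentrations. TGI marks complete inhibition of growth.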
# Tests used:
# Experiment in all cases: growth of human tumour cells (NCI), 48 h
# M14 melanoma = system: M14 melanoma
# HOP-62 NSCLC = system: HOP-62 NSCLC
# LOX IMVI melanoma = system: LOX IMVI melanoma
# HCT-116 colon = system: HCT-116 colon
# SK-MEL-28 melanoma = system: SK-MEL-28 melanoma
# MOLT-4 leukemia = system: MOLT-4 leukemia
# SW-620 colon = system: SW-620 colon
# COLO 205 colon = system: COLO 205 colon
# NCI-H460 lung = system: NCI-H460 lung
Compound,TGI (M14 melanoma) [µM],TGI (HOP-62 NSCLC) [µM],TGI (LOX IMVI melanoma) [µM],TGI (HCT-116 colon) [µM],TGI (SK-MEL-28 melanoma) [µM],TGI (MOLT-4 leukemia) [µM],TGI (SW-620 colon) [µM],TGI (COLO 205 colon) [µM],TGI (NCI-H460 lung) [µM]
COC(=O)C1(C)CCc2c(OC)ccc(OC)c2C1=O (stereo not drawn),> 100,> 100,> 100,> 100,> 100,> 100,> 100,> 100,
CCOC(=O)C1C(=S)NC(=O)C1C#N (stereo not drawn),> 100,> 100,> 100,,> 100,> 100,> 100,> 100,> 100
CCC(=O)C12OC3OC(C)(C)OC3C1OC(C)(C)O2 (stereo not drawn),> 100,> 100,,> 100,> 100,> 100,> 100,,> 100
CCN(CC)CC1c2ccccc2C(CNc2ccccc2)N1C (stereo not drawn),> 100,> 100,> 100,,> 100,> 100,> 100,> 100,> 100
Cc1ccc(-c2nnc(-c3nn(-c4ccccc4)c4nc5ccccc5nc34)o2)cc1,> 100,27.3,40.9,25,> 100,> 100,> 100,> 100,41.6
N#CC(C#N)=C1NC(=O)CC(=O)N1,> 100,> 100,> 100,> 100,,> 100,> 100,> 100,> 100
COc1cc(C(=O)C/C(CCC(=O)Nc2ccccc2[N+](=O)[O-])=N\NC(N)=O)ccc1O,> 100,> 100,> 100,> 100,> 100,> 100,> 100,> 100,> 100
C#C[C@]1(O)CCCC2=CC(=O)CC[C@@]21C,> 100,,,,> 100,> 100,> 100,> 100,> 100
CC#CCC1CCC(OCC)=CC1=O (stereo not drawn),> 100,> 100,> 100,> 100,> 100,> 100,> 100,> 100,> 100
CC/C=C\C/C=C\C/C=C\CCCCCCCC(=O)OCC(O)CO (stereo not drawn),> 81.9,> 100,> 59.6,> 68.3,> 100,> 63.5,> 96.4,> 100,> 100
O=C1CC(c2c[nH]c3ccccc23)C(=O)N1 (stereo not drawn),> 100,> 100,,> 100,> 100,> 100,> 100,,> 100
